Source: patent US7109380B2, “Cyclopentenedione antifungal compounds and methods for their use” (The University of Mississippi, priority 2004, dated 2006)
In brackets after ≈: the same amount, converted by molar mass.

How the values were obtained:
[1] = system: Azole-susceptible and Azole-resistant Candida albicans Strains; test: Antifungal activity against azole-susceptible and azole-resistant patient isolates; format: cell-based; settings: for IC50 / IC80: Candida albicans; for Activity against fluconazole-resistant C. albicans strains (in words): isolates from patients during fluconazole therapy
Procedure: Antimicrobial Assay. Susceptibility testing is performed using a modified version of the National Committee for Clinical Laboratory Standards methods. M intracelluare is tested using a modified method of Franzblau, et al. Seventy-two to 96 h prior to the assay, the M intracellulare subculture is prepared by resuspending cells from the surface of the slant in Middlebrook 7H9 broth with OADC enrichment and incubating at 37° C. and 10% CO2. On the day of the assay, prepared samples (dissolved in DMSO) are serially-diluted using 20%/0.9% DMSO/saline and transferred in duplicate to 96 well flat bottom microplates. Candida spp. and C. neoformans inocula are prepared by picking 1–3 colonies from agar plates and resuspending in ˜5 mL 0.9% sterile saline. The absorption of 10011 of the saline suspensions and the M. intracellulare subculture at 630 nm using the EL-340 Biokinetics Reader (Bio-Tek Instruments, Vermont) is compared either the 0.5 McFarland standard of 0.03 (Mi) or standard curves. The microorganisms are diluted in broth [RPMI 1640/2% dextrose/MOPS at pH 7.3 (Cellgro) for Candida spp., Sabouraud Dextrose for C. neoformans, and 5% Alamar Blue™(BioSource International, Camarillo, Calif.) in Middlebrook 7H9 broth with OADC enrichment, pH=7.3 for M. intracellulare to afford final target inocula of: Candida spp.: 1.0×10^4, C. neoformans: 1.0×10^5, and M. intracellulare: 2.0×10^6 after addition to the samples. The microbial inocula are added to the samples to achieve a final volume of 200 μl. Growth (saline only), solvent and blank (media only) controls are included on each test plate. Drug controls [Ciprofloxacin (ICN Biomedicals, Ohio) for bacteria and Amphotericin B (ICN Biomedicals, Ohio) for fungi] are included in each assay. All organisms are read at either 630 nm using the EL-340 Biokinetics Reader (Bio-Tek Instruments, Vermont) or 544ex/590em, (M. intracellulare) using the Polarstar Galaxy Plate Reader (BMG LabTechnologies, Germany) prior to and after incubation: Candida spp. at 37° C. for 18–24 h, C. neoformans at 30° C. for 72 h, and M. intracellulare at 37° C. and 10% CO2 for 72 h. Percent growth is calculated and plotted versus test concentration to afford the IC50 (sample concentration that affords 50% growth of the organism) and the minimum inhibitory concentration (MIC) and minimum fungicidal or bactericidal concentrations (MFC/MBCs). The MIC is defined as the lowest test concentration that allows no detectable growth (for M. intracellulare no color change from blue to pink). Minimum fungicidal or bactericidal concentrations are determined by removing 5 μl from each clear (or blue) well, transferring to agar and incubating as previously mentioned. The MFC/MBC is defined as the lowest test concentration that kills 100% of the organism (allows no growth on agar).
The bioassay method is a modified version of the National Committee for Clinical Laboratory Standards methods, and is same as the one described in example 8 by which the biological data of compounds 1 and 2 (Tables 1 and 2) were obtained, except that the pH of the culture media for Candida spp. was changed from 7.3 to 4.5.

C. albicans ATCC 90028 = test: In vitro antimicrobial assay (modified NCCLS), Candida media pH 4.5; format: cell-based, Candida albicans; settings: Candida albicans
[2] = Isolate 1, azole-susceptible strain (first listing, r6)
[3] = Isolate 1, azole-susceptible strain (second listing, r10)
[4] = Isolate 2, azole-resistant strain
[5] = Isolate 5, azole-resistant strain
[6] = Isolate 8, azole-resistant strain
[7] = Isolate 17, azole-resistant strain

COC(/C=C/c1ccccc1)=C1\C(=O)C=C(C)C1=O [Compound 1, coruscanone A]
IC50 [1, 2]: 0.6 µg/mL (≈ 2.36 µM) | IC80 [1, 2]: 1 µg/mL (≈ 3.93 µM) | IC50 [1, 3]: 0.45 µg/mL (≈ 1.77 µM) | IC80 [1, 3]: 0.6 µg/mL (≈ 2.36 µM) | IC50 [1, 4]: 0.9 µg/mL (≈ 3.54 µM) | IC80 [1, 4]: 1 µg/mL (≈ 3.93 µM) | IC50 [1, 5]: 0.4 µg/mL (≈ 1.57 µM) | IC80 [1, 5]: 0.6 µg/mL (≈ 2.36 µM) | IC50 [1, 6]: 0.9 µg/mL (≈ 3.54 µM) | IC80 [1, 6]: 1 µg/mL (≈ 3.93 µM) | IC50 [1, 7]: 0.3 µg/mL (≈ 1.18 µM) | IC80 [1, 7]: 0.9 µg/mL (≈ 3.54 µM) | IC95 [1, 2]: 1.50 µg/mL (≈ 5.9 µM) | IC95 [1, 3]: 0.75 µg/mL (≈ 2.95 µM) | IC95 [1, 4]: 1.50 µg/mL (≈ 5.9 µM) | IC95 [1, 5]: 0.70 µg/mL (≈ 2.75 µM) | IC95 [1, 6]: 1.50 µg/mL (≈ 5.9 µM) | IC95 ([1]; Isolate 17, azole-resistant strain, highest test concentration 100 μg/mL): 1.50 µg/mL (≈ 5.9 µM) | Activity against fluconazole-resistant C. albicans strains (in words) [1]: retains equivalent activity relative to the susceptible strains | Activity against fluconazole-resistant C. albicans strains (in words) ([1]; listed as coruscanone A): inhibits | IC50 (C. albicans ATCC 90028; ATCC90028, pH 4.5, read-out: IC50 (50% inhibitory concentration)): 0.2 µg/mL (≈ 0.787 µM) | MFC (C. albicans ATCC 90028; ATCC90028, C. albicans ATCC 90028, pH 4.5, Table 3, read-out: MFC): 0.63 µg/mL (≈ 2.48 µM) | MIC (C. albicans ATCC 90028; ATCC90028, C. albicans ATCC 90028, pH 4.5, Table 3, read-out: MIC): 0.31 µg/mL (≈ 1.22 µM)
